Patent US11708338B2, “Substituted phenyl sulfonyl phenyl triazole thiones and uses thereof” (Neuropore Therapies, Inc., priority 2017, dated 2023)

Experiments:
Type in all cases: in vivo, mouse
monomeric ASYN = assay: ProteinSimple western biochemical evaluation of monomeric ASYN in cytosolic fraction of brain homogenates; conditions: L61 ASYN transgenic mice, 1, 5 or 10 mg/kg per day i.p., 1 month
Method: Multiple in vivo administration studies of Compound 1 were carried out in the Line 61 (L61) mThy1-alpha-synuclein transgenic mouse model of Parkinson's disease (PD). The mThy1-alpha-synuclein transgenic mouse model overexpresses wild-type human ASYN under the Thy-1 promoter studies (commonly referred to as Line 61 transgenic mice; Rockenstein et al., 2002). […]
Alpha-synuclein (ASYN) is a neuronal protein whose dysregulation has been implicated in the pathogenesis of PD. The effects of Compound 1 on alpha-synuclein aggregation were assessed in both L61 ASYN transgenic and non-transgenic mice in a 1 month administration study. […] At the end of one month, the mice were sacrificed, and immunohistochemical (IHC) detection of total alpha-synuclein deposits, insoluble alpha-synuclein deposits (PK+resistant), microtubule-associated protein 1A/1B-light chain 3 (LC3), and monomeric alpha-synuclein levels were assessed in the harvested brain tissues.
Biochemical evaluations were conducted using a ProteinSimple© western biochemical evaluation. Briefly, samples were mixed with pre-calculated volumes of 0.1×Sample Buffer and 5×Fluorescent Master Mix to make a final sample concentration of 0.4 mg/mL in 10 μL solution for signal optimization and evaporation reduction. […]

[1] = test system: glial fibrillary acidic protein (GFAP); assay: GFAP IHC staining in sections containing hippocampus, 1 month administration study; conditions: L61 ASYN transgenic mice
Method: Neuroinflammation is also associated with increased expression of glial fibrillary acidic protein (GFAP) in activated astrocytes, which is induced by a variety of molecules including pro-inflammatory mediators released from activated microglia (Saijo et al. 2009). Increased expression of glial fibrillary acidic protein (GFAP) represents astroglial activation and gliosis during neurodegeneration. (Brahmachari et al., 2006). The effects of Compound 1 on GFAP expression were assessed in both L61 ASYN transgenic and non-transgenic mice in a 1 month administration study. After 30 days, the mice were sacrificed, and IHC detection of GFAP was assessed in the harvested brain tissues.
The harvested brain tissues from treated mice were fixed (drop fixed in 4% PFA) and then sectioned into 40 micro thick sections using a vibratome. The representative sections containing the hippocampus were assessed for GFAP with standard immunohistochemistry staining. The general methods used for GFAP immunostaining follow those described in Rockenstein et al., J Neurosci Res. 2002, 68(5):568-78.

[2] = test system: Translocator Protein (18 kDa) (TSPO); assay: TSPO immunofluorescence in cortex of L41 APP transgenic mice; conditions: 5 mg/kg daily i.p.
Method: Neuroinflammation is associated with increased expression of the 18-kDa translocator protein (TSPO), which is present on the mitochondria of activated microglia, astroglia and macrophages (Crawshaw and Robertson 2017). The effects of Compound 1 on TSPO expression were assessed in both L41 APP transgenic and non-transgenic mice in a 1 month administration study. L41 APP transgenic mice (36 total mice, n=8-11 mice per treatment group) were injected (i.p.) daily with 5 mg/kg of Compound 1 or a vehicle control (5% DMSO+20% Cremphor EL+0.9% normal saline) for […]. Non-transgenic mice (18 total mice, n=8-11 mice per treatment group) were used as a control and were injected daily (i.p.) with 10 mg/kg of Compound 1 (data not shown) or a vehicle control (5% DMSO+20% Cremphor EL+0.9% normal saline) for 1 month. After 30 days, the mice were sacrificed, and immunofluoresence (IF) detection of TSPO were assessed in the harvested brain tissues.
The harvested brain tissues were drop fixed using 4% PFA and sectioned on a vibratome, and representative sections corresponding to the neuropil of cortex were assessed for TSPO with standard immunofluorescence (IF) staining.

O=S(=O)(c1ccc(-n2cn[nH]c2=S)cc1)c1ccc(Cl)c(C(F)(F)F)c1 [Compound 1, 4-(4-((4-chloro-3-(trifluoromethyl)phenyl)sulfonyl)phenyl)-2,4-dihydro-3H-1,2,4-triazole-3-thione]
cortical levels of monomeric ASYN in cytosolic fraction of brain homogenates (monomeric ASYN): reduced | hippocampal levels of monomeric ASYN in cytosolic fraction of brain homogenates (monomeric ASYN): reduced | GFAP levels, IHC staining intensity in representative images (FIG. 16) ([1]; 5 mg/kg or 10 mg/kg daily i.p.): reducing cortical levels of GFAP | GFAP levels, quantification (FIG. 17) ([1]; 10 mg/kg dose i.p. daily): reduces the cortical GFAP levels in a statistically significant manner | cortical TSPO level vs vehicle-treated Line 41 mice, quantification (FIG. 20) [2]: reduces the TSPO level in a statistically significant manner
